The text below walks through data of US20230364079A1, “COMPOUND AS BRAIN-PERMEABLE BTK OR HER2 INHIBITOR, PREPARATION METHOD THEREFOR, AND USE THEREOF” (CHENGDU HYPERWAY PHARMACEUTICALS CO., LTD., priority 2020, published 2023).

Structures can show the parent of a compound that is named as a salt.

In data set [1] the target is BTK mutation-type C481S kinase (Homo sapiens (Human), UniProt Q06187, C481S). Description: BTK-C481S kinase activity inhibition test in vitro (Caliper EZ Reader). Format: biochemical. The procedure:
In the tests on the activity of inhibiting BTK and HER2 kinase in vitro in the examples of the present disclosure, powder of the compound was dissolved in 100% DMSO to prepare a 10 mM stock solution and stored at-20° C. in the dark. […] In addition, the compounds were subjected to experiments such as liver microsome metabolic stability, rat PK, rat brain penetration rate, and drug efficacy model in the examples of the present disclosure.
Compound powders were dissolved in 100% DMSO to make 10 mM stock solutions, which were stored at -20° C. in the dark.
2: Kinase Reaction Process
(1) Preparation of 1 × Kinase buffer.
(5) After centrifugation at 1000 rpm for 30 seconds, the reaction plate was shaken to mix well and incubated at room temperature for 10 min.
(6) A 5/3-fold final concentration of a mixed solution of ATP and Kinase substrate 2 was prepared with 1 × Kinase buffer.
(7) 15 µL of the mixed solution of ATP and substrate with 5/3-fold final concentration was added to start the reaction.
(8) The 384-well plate was centrifuged at 1000 rpm for 30 seconds, shaken to mix well, and incubated at room temperature for 10 min.
(9) 30 µL of a stop solution was added to stop the kinase reaction, and after centrifugation at 1000 rpm for 30 seconds, the plate was shaken to mix well;
(10) The conversion rate was read with Caliper EZ Reader.
where Conversion%_sample indicates the conversion rate reading of the sample; Conversion%_min is the average reading of the negative control wells, representing the conversion rate reading of the wells without enzyme activity; Conversion%_max is the average reading of the ratio of the positive control wells, representing the conversion rate reading of the wells without compound inhibition.
Dose-Response Curve Fitting
With the log value of the concentration as the X-axis, and the percentage inhibition rate as the Y-axis, the dose-effect curve was fitted using the log(inhibitor) vs. response-Variable slope of the analysis software GraphPad Prism 5, so as to determine the IC50 value of each compound on the enzyme activity.
The calculation formula was: […]

Data set [2] is described as follows: Pharmacokinetic test, oral, SD rats. Format: in vivo. The note with it: oral 10 mg/kg, plasma; for AUC(0-inf) / Cmax / half-life: rat; for Cmax: read-out: Cmax; for half-life: read-out: T½ (converted). The procedure:
Each test compound was administered orally (10 mg/kg, 3 rats in each group) to SD rats for pharmacokinetic study. […] Animals were fasted overnight before oral administration, and fed again after 4 h of administration. […] At each collection time point, 3 whole blood samples were collected at a the collection volume of about 0.2-0.3 mL. […] The collected plasma was stored at -20° C. before analysis. 20 µL of plasma sample was added into a 1.6 mL 96-well deep-well plate, added with 200 µL of working internal standard solution (the same volume of vehicle was added to the blank instead of internal standard), vortexed for 1 min, and centrifuged at 5800 rpm for 10 min. 100 µL of the supernatant was added to a 96-well injection plate for LC-MS/MS analysis.

In a further data set the target is BTK wild-type kinase (Homo sapiens (Human), UniProt Q06187). Description: BTK kinase activity inhibition test in vitro (Caliper EZ Reader). The class given is biochemical. The procedure, abridged:
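Compound (10 mM DMSO stock) preincubated with kinase 10 min at room temperature, then ATP plus kinase substrate 2 added, 10 min reaction at room temperature before stop. Substrate conversion read by Caliper mobility shift; inhibition normalised to no-enzyme and no-compound controls, IC50 by variable-slope log(inhibitor) fit.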

The nature of data set [3]: Liver microsome metabolic stability test, rat. The class given is in vitro ADME. The note with it: for half-life: 0.5 mg/mL protein, read-out: T½. The protocol:
(§1) 1: To the sample wells of T0, T5, T10, T20, T30, T60 and NCF60, 10 µL of the test or reference working solution and 80 µL of microsome working solution (hepatic microsome with a protein concentration of 0.5 mg/mL) were added, and to Blank60 well, only the microsome working solution was added. Then samples of the Blank60, T5, T10, T20, T30 and T60 other than T0 and NCF60 were placed in a 37° C. water bath and pre-incubated for about 10 min.
(§2) 2: To the T0 sample well, 300 µL of stop solution (containing 200 ng/mL tolbutamide and 200 ng/mL labetalol in acetonitrile solution) was added first, followed by 10 µL of NADPH regeneration system working solution.
(§3) 3: After the pre-incubation of Blank60, T5, T10, T20, T30 and T60 incubation plates, 10 µL of NADPH regeneration system working solution was added to each sample well to start the reaction, and 10 µL of 100 mM potassium phosphate buffer was added to the NCF60 sample well.
(§4) 4: After incubation for an appropriate time (such as 5, 10, 20, 30 and 60 min), to each test sample well and control well of the Blank60, T5, T10, T20, T30, T60 and NCF60 plates, 300 µL of stop solution was added to terminate the reaction.
(§5) 5: All sample plates were shaken to mix well and centrifuged at 4000 rpm for 20 min, and 100 µL of the supernatant of the test sample or control sample was taken and diluted with 300 µL of pure water for LC-MS/MS analysis.
(§6) 6: Data analysis: T½ and CLint(mic) (µL/min/mg) values were calculated according to the first-order elimination kinetics. The first-order elimination kinetics equation was: […]

The nature of data set [4]: Liver microsome metabolic stability test, human. Format: in vitro ADME. The following applies: for half-life: 0.5 mg/mL protein, read-out: T½. The protocol: as §1, §2, §3, §4, §5, §6
Data set [5] can be described thus: Blood-brain barrier permeability test, SD rats (plasma, cerebrospinal fluid, brain tissue). The class given is in vivo. The following applies: oral single dose 10 mg/kg. The protocol: Test Example 6: Blood-brain Barrier Permeability Test
Each test compound was administered orally at a single dose of 10 mg/kg to SD rats for pharmacokinetic study. Each group included 9 rats. The test compound was dissolved in 5% DMSO+10% solutol+85% saline, vortexed for 1-2 min, and ultrasonicated for 5-10 min to prepare into a colorless, transparent and clear administration solution. Animals were fasted overnight before administration. 1 h, 2 h, and 4 h after administration, three SD rats were selected from each group to take about 0.2-0.3 mL of blood through their orbit. The blood sample was placed on ice once collected, and centrifuged to separate the plasma within 15 min (centrifugation conditions: 8000 rpm, 1 min, room temperature). The collected plasma was stored at -20° C. before analysis. Immediately after blood collection, the cerebrospinal fluid and brain tissue were collected. The cerebrospinal fluid was draw out by dural puncture with a micro-sampler syringe under direct vision. Namely, about 100 µl of cerebrospinal fluid was collected with a 100 µl micro sample syringe from the rat that was anesthetized by chloral hydrate, with the head-fixed, the back hair-cut off, a transverse incision (2 cm) made at the line connecting the roots of the two ears, and the muscle layer of the neck and skull base bluntly scraped to expose the foramen magnum. The cerebrospinal fluid was stored at -20° C. before analysis. The rat then was sacrificed immediately, with its head cut off. The dissected brain tissue, with the surface capillaries peeled off, was weighed, added with 3 times the amount of cold saline, homogenized by a homogenizer for 1 min, and stored at -20° C. before analysis. 20 µL of plasma sample and brain homogenate sample was respectively added into 200 µL of working internal standard solution (the same volume of vehicle was added to the blank instead of internal standard), vortexed for 1 min, and centrifuged at 13500 rpm for 10 min. 100 µL of the supernatant was taken and analyzed by LC-MS/MS. 20 µL of the cerebrospinal fluid was added into 60 µL of working internal standard solution (the same volume of vehicle, instead of internal standard, was added to the blank), vortexed for 1 min, and centrifuged at 13500 rpm for 10 min. 50 µL of the supernatant was taken and analyzed by LC-MS/MS.

The subject of data set [6] is relapsed/refractory central nervous system lymphoma. The note with it: relapsed or refractory PCNSL patients; cited from earlier work.

Sequence of BTK mutation-type C481S kinase (Q06187 whole entry C481S): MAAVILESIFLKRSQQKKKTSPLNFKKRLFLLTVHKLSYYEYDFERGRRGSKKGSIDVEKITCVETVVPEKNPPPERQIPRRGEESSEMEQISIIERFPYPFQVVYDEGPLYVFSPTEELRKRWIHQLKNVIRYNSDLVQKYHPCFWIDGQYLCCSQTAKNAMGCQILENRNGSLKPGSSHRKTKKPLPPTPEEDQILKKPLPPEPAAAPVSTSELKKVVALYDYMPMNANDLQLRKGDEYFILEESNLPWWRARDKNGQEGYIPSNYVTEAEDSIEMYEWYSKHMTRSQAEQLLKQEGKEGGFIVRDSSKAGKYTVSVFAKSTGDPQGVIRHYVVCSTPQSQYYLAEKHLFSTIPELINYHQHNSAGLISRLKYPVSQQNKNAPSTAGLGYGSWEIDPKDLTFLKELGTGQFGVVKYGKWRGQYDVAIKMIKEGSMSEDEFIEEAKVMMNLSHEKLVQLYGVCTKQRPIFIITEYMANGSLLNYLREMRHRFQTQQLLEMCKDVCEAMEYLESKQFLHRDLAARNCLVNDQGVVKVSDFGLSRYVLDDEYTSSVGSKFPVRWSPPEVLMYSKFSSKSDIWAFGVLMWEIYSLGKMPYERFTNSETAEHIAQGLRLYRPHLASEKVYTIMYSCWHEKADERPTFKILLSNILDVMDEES
Sequence of BTK wild-type kinase (Q06187 whole entry): as the sequence (Q06187 whole entry C481S) above, with S481C counted along it

Turning to `Nc1nccn2c(C3CCC(CO)OC3)nc(-c3ccc(C(=O)Nc4cc(C(F)(F)F)ccn4)cc3)c12` (single isomer, unassigned) [Compound 109-P1], in data set [1], the 50% inhibitory concentration (IC50) is below 5 nM. Moreover, in data set [2], the “Cl” value is 1.62 mL/min/kg, the AUC(0-inf) amounted to 104000 ng·h/mL, the Cmax is 16700 ng/mL and the half-life was 2.83 h. The IC50 at BTK wild-type kinase is below 5 nM. The “%Remaining (60 min)” value in data set [3] is 72.7%. In data set [3] (liver microsomes), the intrinsic clearance (microsomal CLint) was 12.2 µL/min/mg and the half-life amounted to 1.9 h. Also, the “%Remaining (60 min)” value in data set [4] came to 85.4%. For the same molecule, in data set [4] (liver microsomes), the microsomal CLint is below 9.6 µL/min/mg and the half-life is above 2.42 h.
In the case of `COc1cccc(Oc2ccc(-c3nc(C4CCC(CO)OC4)n4ccnc(N)c34)cc2)c1F` (stereo not shown) [Compound 5], the concentration for half-maximal inhibition (IC50) (in data set [1]; against BTK wild-type kinase) was below 5 nM each time. For the same molecule, the “Cl” value in data set [2] amounted to 69.13 mL/min/kg. This molecule also had an area under the curve AUC(0-inf) in data set [2] of 2520 ng·h/mL. Moreover, in data set [2], the Cmax came out at 463 ng/mL. Also, the values for the half-life in data set [2], in data set [3] (liver microsomes) and in data set [4] (liver microsomes) were 1.17 h, 0.19 h and 0.595 h, respectively. Further, the entries for the “%Remaining (60 min)” value in data set [3] and in data set [4] were 12.7% and 31.7%, respectively.
Regarding `Nc1nccn2c(C3CCC(CO)OC3)nc(-c3ccc(C(=O)c4ccccc4)cc3)c12` (stereo not shown) [Compound 26], the half-inhibitory concentration (IC50) (in data set [1]; on BTK wild-type kinase) was 5 to 20 nM in each case. The “%Remaining (60 min)” value in data set [3] is listed as 24.5%; in data set [4] it was 39.1%. Besides, the half-life was 0.502 h in data set [3] (liver microsomes) and 0.742 h in data set [4] (liver microsomes).
Regarding `Nc1nccn2c(C34CCC(CO)(CC3)OC4)nc(-c3ccc(C(=O)Nc4ccccn4)cc3)c12` [Compound 34], the IC50 (in data set [1]; at BTK wild-type kinase) was 5 to 20 nM throughout. In data set [2], the “Cl” value came out at 8.1 mL/min/kg. The same molecule registered an AUC(0-inf) in data set [2] of 20600 ng·h/mL. For the same molecule, the Cmax in data set [2] worked out at 11100 ng/mL. The half-life in data set [2] was 1.7 h; in data set [3] (liver microsomes), above 2.42 h; in data set [4] (liver microsomes) it was above 2.42 h. In addition, the entries for the “%Remaining (60 min)” value in data set [3] and in data set [4] were 90.3% and 112.0%, respectively.
With `N#Cc1ccnc(NC(=O)c2ccc(-c3nc(C4CCC(CO)OC4)n4ccnc(N)c34)cc2)c1` (stereo not shown) [Compound 103], the 50% inhibitory concentration (IC50) (in data set [1]; against BTK wild-type kinase) was below 5 nM throughout. Moreover, the “Cl” value in data set [2] came to 16.67 mL/min/kg. In data set [2], this molecule gave an area under the curve AUC(0-inf) of 10400 ng·h/mL. Also, in data set [2], the Cmax amounted to 4730 ng/mL. The results for the half-life in data set [2], in data set [3] (liver microsomes) and in data set [4] (liver microsomes) were 1.73 h, above 2.42 h and above 2.42 h, respectively. The figures for the “%Remaining (60 min)” value in data set [3] and in data set [4] were 85.7% and 100.3%, respectively.
For `Nc1nccn2c(C3CCC(CO)OC3)nc(-c3ccc(Cc4ccccc4)cc3)c12` (stereo not shown) [Compound 106], the half-maximal inhibitory concentration (IC50) (in data set [1]; against BTK wild-type kinase) was below 5 nM throughout. In addition, in data set [2], the “Cl” value is 64.75 mL/min/kg. In data set [2], this molecule gave a total exposure AUC(0-inf) of 2580 ng·h/mL. In addition, the maximum concentration (Cmax) in data set [2] was determined as 1220 ng/mL. Further, the figures for the half-life in data set [2], in data set [3] (liver microsomes) and in data set [4] (liver microsomes) were 1.87 h, 0.782 h and 1.76 h, respectively. For the same molecule, the “%Remaining (60 min)” value is 39.1% in data set [3] and 66.3% in data set [4].
On to `Nc1nccn2c(C3CCC(CO)OC3)nc(-c3ccc(C(F)(F)c4ccccc4)cc3)c12` (stereo not shown) [Compound 111], for which the half-maximal inhibitory concentration (IC50) (in data set [1]; at BTK wild-type kinase) was below 5 nM each time. Besides, the “Cl” value in data set [2] came to 17.83 mL/min/kg. This molecule also yielded an area under the curve AUC(0-inf) in data set [2] of 9630 ng·h/mL. Besides, in data set [2], the Cmax turned out to be 1780 ng/mL. In addition, the half-life in data set [2] was 3.15 h; in data set [3] (liver microsomes), 0.887 h; in data set [4] (liver microsomes), 2.12 h. For the same molecule, the “%Remaining (60 min)” value in data set [3] is 46%; in data set [4], 73.5%.
Turning to `Nc1nccn2c(C34CCC(CO)(CC3)OC4)nc(-c3ccc(C(F)(F)c4cccc(F)c4Cl)cc3)c12` [Compound 146], in data set [5] (1 h), the Brain tissue/plasma is 78%, the Cerebrospinal fluid/plasma is on record as 7.2%, the “Drug concentration in brain tissue” value came to 296 ng/g and the “Drug concentration in cerebrospinal fluid” value is 27.4 ng/mL. In addition, the Plasma drug concentration in data set [5] (1 h) was determined as 380 ng/mL. In addition, in data set [5] (4 h), the Brain tissue/plasma came out at 110%, the Cerebrospinal fluid/plasma is 9.2%, the “Drug concentration in brain tissue” value is listed as 410 ng/g and the “Drug concentration in cerebrospinal fluid” value worked out at 34.3 ng/mL. In addition, the Plasma drug concentration in data set [5] (4 h) came to 373 ng/mL.
Consider `CC#CC(=O)N1CC[C@@H](n2c(=O)n(-c3ccc(Oc4ccccc4)cc3)c3c(N)ncnc32)C1` [Velexbru, Tirabrutinib hydrochloride], for which, in data set [6], the “patients who achieved effective remission” value was 52.9%.
